# Laboratory results: patent US20240360082A1, “SUBSTITUTED PYRIDONE COMPOUNDS USEFUL TO TREAT ORTH[…]” (priority 2021, published 2024)
# Target: influenza A virus minigenome (PB2, PB1, PA, NP proteins) (UniProt P04665)
# Assay type: cell-based
# Conditions: read-out: RNP_ Hubei B IC50
# Sequence of influenza A virus minigenome (PB2, PB1, PA, NP proteins) (P04665 whole entry): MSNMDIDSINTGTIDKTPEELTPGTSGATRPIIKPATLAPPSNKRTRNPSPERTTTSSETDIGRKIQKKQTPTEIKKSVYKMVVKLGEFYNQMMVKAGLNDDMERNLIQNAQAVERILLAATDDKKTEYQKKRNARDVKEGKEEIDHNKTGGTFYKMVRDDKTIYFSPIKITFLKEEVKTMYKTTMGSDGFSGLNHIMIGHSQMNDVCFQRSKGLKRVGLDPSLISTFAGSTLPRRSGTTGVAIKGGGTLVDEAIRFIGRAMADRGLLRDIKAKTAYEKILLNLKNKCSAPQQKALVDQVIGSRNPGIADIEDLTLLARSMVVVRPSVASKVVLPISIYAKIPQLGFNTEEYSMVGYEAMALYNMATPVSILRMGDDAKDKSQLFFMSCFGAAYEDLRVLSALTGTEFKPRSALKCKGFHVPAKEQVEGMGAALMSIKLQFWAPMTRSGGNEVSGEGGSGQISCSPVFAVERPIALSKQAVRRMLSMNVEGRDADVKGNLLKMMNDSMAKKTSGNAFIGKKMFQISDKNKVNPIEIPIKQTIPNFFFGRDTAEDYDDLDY
row,Compound,IC50 [µM]
1,"NC(=O)c1cc(-c2ccc(OCC3COCC4(CC4)O3)cc2)c(C(F)(F)F)[nH]c1=O (single isomer, unassigned) [Example 335, (4-(4,7-dioxaspiro[2.5]octan-5-ylmethoxy)phenyl)-2-oxo-6-(trifluoromethyl)-1,2-dihydropyridine-3-carboxamide]",5 to 10
2,"NC(=O)c1cc(-c2ccc(OCC3COCCO3)cc2)c(C(F)(F)F)[nH]c1=O (single isomer, unassigned) [Example 238, 5-(4-((1,4-dioxan-2-yl)methoxy)phenyl)-2-oxo-6-(trifluoromethyl)-1,2-dihydropyridine-3-carboxamide]",25 to 50
3,"NC(=O)c1cc(-c2ccc(OCC3OCC4CCC3O4)cc2)c(C(F)(F)F)[nH]c1=O (single isomer, unassigned) [Example 318, 5-(4-((3,8-dioxabicyclo[3.2.1]octan-2-yl)methoxy)phenyl)-2-oxo-6-(trifluoromethyl)-1,2-dihydropyridine-3-carboxamide]",5 to 10
4,"NC(=O)c1cc(-c2ccc(OCC3COC(CF)CO3)cc2)c(C(F)(F)F)[nH]c1=O (single isomer, unassigned) [Example 340, 5-(4-((5-(fluoromethyl)-1,4-dioxan-2-yl)methoxy)phenyl)-2-oxo-6-(trifluoromethyl)-1,2-dihydropyridine-3-carboxamide]",5 to 10
5,"C[C@]1(COC2COC2)COC[C@@H](COc2ccc(-c3cc(C(N)=O)c(=O)[nH]c3C(F)(F)F)cc2)O1 [Example 427, 5-(4-(((2S,6R)-6-methyl-6-((oxetan-3-yloxy)methyl)-1,4-dioxan-2-yl)methoxy)phenyl)-2-oxo-6-(trifluoromethyl)-1,2-dihydropyridine-3-carboxamide]",5 to 10
6,"C[C@@]1(CF)COC[C@@H](COc2ccc(-c3cc(C(N)=O)c(=O)[nH]c3C(F)(F)F)cc2)O1 [Example 419, 5-(4-(((2S,6S)-6-(fluoromethyl)-6-methyl-1,4-dioxan-2-yl)methoxy)phenyl)-2-oxo-6-(trifluoromethyl)-1,2-dihydropyridine-3-carboxamide]",5 to 10
7,"NC(=O)c1cc(-c2ccc(OCC3COC(CF)CO3)cc2)c(C(F)(F)F)[nH]c1=O (single isomer, unassigned) [Example 341, 5-(4-((5-(fluoromethyl)-1,4-dioxan-2-yl)methoxy)phenyl)-2-oxo-6-(trifluoromethyl)-1,2-dihydropyridine-3-carboxamide]",5 to 10
8,"CCN1CCOCC1COc1ccc(-c2cc(C(N)=O)c(=O)[nH]c2C(F)(F)F)cc1 (centres unmarked) [Example 249, 5-(4-((4-ethylmorpholin-3-yl)methoxy)phenyl)-2-oxo-6-(trifluoromethyl)-1,2-dihydropyridine-3-carboxamide]",5 to 10
9,"CCn1cc(COc2ccc(-c3cc(C(N)=O)c(=O)[nH]c3C(F)(F)F)cc2)cn1 [Example 222, 5-(4-((1-ethyl-1H-pyrazol-4-yl)methoxy)phenyl)-2-oxo-6-(trifluoromethyl)-1,2-dihydropyridine-3-carboxamide]",25 to 50
10,"NC(=O)c1cc(-c2ccc(OCCN3CCOC3=O)cc2)c(C(F)(F)F)[nH]c1=O [Example 257, 2-oxo-5-(4-(2-(2-oxooxazolidin-3-yl)ethoxy)phenyl)-6-(trifluoromethyl)-1,2-dihydropyridine-3-carboxamide]",25 to 50
11,"C[C@@]1(CN2CC(F)(F)C2)COC[C@@H](COc2ccc(-c3cc(C(N)=O)c(=O)[nH]c3C(F)(F)F)cc2)O1 [Example 422, 5-(4-(((2S,6R)-6-((3,3-difluoroazetidin-1-yl)methyl)-6-methyl-1,4-dioxan-2-yl)methoxy)phenyl)-2-oxo-6-(trifluoromethyl)-1,2-dihydropyridine-3-carboxamide]",5 to 10
12,"NC(=O)c1cc(-c2ccc(OCC3COCC(COCC(F)F)O3)cc2)c(C(F)(F)F)[nH]c1=O (single isomer, unassigned) [Example 368, 5-(4-((6-((2,2-difluoroethoxy)methyl)-1,4-dioxan-2-yl)methoxy)phenyl)-2-oxo-6-(trifluoromethyl)-1,2-dihydropyridine-3-carboxamide]",5 to 10
13,"NC(=O)c1cc(-c2ccc(OCC3CO[C@@H]4[C@H](O3)C4(F)F)cc2)c(C(F)(F)F)[nH]c1=O (stereo partly drawn) [Example 390, 5-(4-((cis-7,7-difluoro-2,5-dioxabicyclo[4.1.0]heptan-3-yl)methoxy)phenyl)-2-oxo-6-(trifluoromethyl)-1,2-dihydropyridine-3-carboxamide]",1 to 5
14,"CC1(COc2ccc(-c3cc(C(N)=O)c(=O)[nH]c3C(F)(F)F)cc2)COCCOC1 [Example 321, 5-(4-((6-methyl-1,4-dioxepan-6-yl)methoxy)phenyl)-2-oxo-6-(trifluoromethyl)-1,2-dihydropyridine-3-carboxamide]",5 to 10
15,"NC(=O)c1cc(-c2ccc(OCC3OCC4CCC3O4)cc2)c(C(F)(F)F)[nH]c1=O (single isomer, unassigned) [Example 319, 5-(4-((3,8-dioxabicyclo[3.2.1]octan-2-yl)methoxy)phenyl)-2-oxo-6-(trifluoromethyl)-1,2-dihydropyridine-3-carboxamide]",5 to 10

# Same assay, conditions: read-out: RNP_Hubei B
row,Compound,IC50 [µM]
1,"NC(=O)c1cc(-c2ccc(OC(c3cccnc3)C3CC3)cc2)c(C(F)(F)F)[nH]c1=O (centres unmarked) [Example 184, 5-(4-(cyclopropyl(pyridin-3-yl)methoxy)phenyl)-2-oxo-6-(trifluoromethyl)-1,2-dihydropyridine-3-carboxamide]",10 to 25
2,"CN(C)C(=O)c1ccc(COc2ccc(-c3cc(C(N)=O)c(=O)[nH]c3C(F)(F)F)cc2)cc1 [Example 60, 5-(4-((4-(dimethylcarbamoyl)benzyl)oxy)phenyl)-2-oxo-6-(trifluoromethyl)-1,2-dihydropyridine-3-carboxamide]",25 to 50
3,"NC(=O)c1cc(-c2ccc(OCc3ccc(C(F)(F)F)cc3)cc2)c(C(F)(F)F)[nH]c1=O [Example 87, 2-oxo-6-(trifluoromethyl)-5-(4-((4-(trifluoromethyl)benzyl)oxy)phenyl)-1,2-dihydropyridine-3-carboxamide]",1 to 5
4,"CO[C@@H]1CCN(Cc2ccc(-c3cc(C(N)=O)c(=O)[nH]c3C(F)(F)F)cc2)C1 [Example 41, (R)-5-(4-((3-methoxypyrrolidin-1-yl)methyl)phenyl)-2-oxo-6-(trifluoromethyl)-1,2-dihydropyridine-3-carboxamide]",25 to 50
5,"NC(=O)c1cc(-c2ccc(OCc3ccncc3)cc2)c(C(F)(F)F)[nH]c1=O [Example 70, 2-oxo-5-(4-(pyridin-4-ylmethoxy)phenyl)-6-(trifluoromethyl)-1,2-dihydropyridine-3-carboxamide]",25 to 50
6,"NC(=O)c1cc(-c2ccc(O)cc2)c(C(F)(F)F)[nH]c1=O [Example 3, 5-(4-hydroxyphenyl)-2-oxo-6-(trifluoromethyl)-1,2-dihydropyridine-3-carboxamide]",25 to 50
7,"NC(=O)c1cc(-c2ccc(OCC3CCCOC3)cc2)c(C(F)(F)F)[nH]c1=O (centres unmarked) [Example 102, 2-oxo-5-(4-((tetrahydro-2H-pyran-3-yl)methoxy)phenyl)-6-(trifluoromethyl)-1,2-dihydropyridine-3-carboxamide]",5 to 10
8,"NC(=O)c1cc(-c2ccc(OCc3ccc(F)c([N+](=O)[O-])c3)cc2)c(C(F)(F)F)[nH]c1=O [Example 93, 5-(4-((4-fluoro-3-nitrobenzyl)oxy)phenyl)-2-oxo-6-(trifluoromethyl)-1,2-dihydropyridine-3-carboxamide]",10 to 25
9,"NC(=O)c1cc(-c2ccc(CN3CCCOCC3)cc2)c(C(F)(F)F)[nH]c1=O [Example 34, 5-(4-((1,4-oxazepan-4-yl)methyl)phenyl)-2-oxo-6-(trifluoromethyl)-1,2-dihydropyridine-3-carboxamide]",25 to 50
10,"NC(=O)c1cc(-c2ccc(OCc3cncnc3)cc2)c(C(F)(F)F)[nH]c1=O [Example 82, 2-oxo-5-(4-(pyrimidin-5-ylmethoxy)phenyl)-6-(trifluoromethyl)-1,2-dihydropyridine-3-carboxamide]",25 to 50
11,"NC(=O)c1cc(-c2ccc(OCC3COCC(C(F)F)O3)cc2)c(C(F)(F)F)[nH]c1=O (single isomer, unassigned) [Example 348, 5-(4-((6-(difluoromethyl)-1,4-dioxan-2-yl)methoxy)phenyl)-2-oxo-6-(trifluoromethyl)-1,2-dihydropyridine-3-carboxamide]",5 to 10
12,"CCOCC1COCC(COc2ccc(-c3cc(C(N)=O)c(=O)[nH]c3C(F)(F)F)cc2)O1 (single isomer, unassigned) [Example 360, 5-(4-((6-(ethoxymethyl)-1,4-dioxan-2-yl)methoxy)phenyl)-2-oxo-6-(trifluoromethyl)-1,2-dihydropyridine-3-carboxamide]",5 to 10
13,"NC(=O)c1cc(-c2ccc(OCc3ccccn3)cc2)c(C(F)(F)F)[nH]c1=O [Example 73, 2-oxo-5-(4-(pyridin-2-ylmethoxy)phenyl)-6-(trifluoromethyl)-1,2-dihydropyridine-3-carboxamide]",25 to 50
14,"NC(=O)c1cc(-c2ccc(OCc3ccnnc3)cc2)c(C(F)(F)F)[nH]c1=O [Example 84, 2-oxo-5-(4-(pyridazin-4-ylmethoxy)phenyl)-6-(trifluoromethyl)-1,2-dihydropyridine-3-carboxamide]",25 to 50
15,"C=CCCC(Oc1ccc(-c2cc(C(N)=O)c(=O)[nH]c2C(F)(F)F)cc1)c1cccnc1 (centres unmarked) [Example 185, 2-oxo-5-(4-((1-(pyridin-3-yl)pent-4-en-1-yl)oxy)phenyl)-6-(trifluoromethyl)-1,2-dihydropyridine-3-carboxamide]",10 to 25
16,"NC(=O)c1cc(-c2ccc(OCc3ccn4ccnc4c3)cc2)c(C(F)(F)F)[nH]c1=O [Example 91, 5-(4-(imidazo[1,2-a]pyridin-7-ylmethoxy)phenyl)-2-oxo-6-(trifluoromethyl)-1,2-dihydropyridine-3-carboxamide]",25 to 50
17,"CC(=O)N1CCC(COc2ccc(-c3cc(C(N)=O)c(=O)[nH]c3C(F)(F)F)cc2)CC1 [Example 55, 5-(4-((1-acetylpiperidin-4-yl)methoxy)phenyl)-2-oxo-6-(trifluoromethyl)-1,2-dihydropyridine-3-carboxamide]",25 to 50
